From publication PMC6353796, “Thermostable Branched-Chain Amino Acid Transaminases From the Archaea Geoglobus acetivorans and Archaeoglobus fulgidus: Biochemical and Structural Characterization” (Frontiers in Bioengineering and Biotechnology, 2019)

Tests used:
Type in all cases: binding
[1] = target: T1, AF0933 (Archaeoglobus fulgidus, UniProt O29329); assay: X-ray crystal structure, […] Å, co-crystallization; conditions: 5 mM gabaculine; covalent adduct with PLP, irreversible; partial occupancy, absent in subunit F
T1 construct: gene ilvE; His-tagged (pLATE51, E. coli Rosetta (DE3)-pLysS); homohexamer in solution; catalytic Lys150
T1 sequence (O29329 1-290): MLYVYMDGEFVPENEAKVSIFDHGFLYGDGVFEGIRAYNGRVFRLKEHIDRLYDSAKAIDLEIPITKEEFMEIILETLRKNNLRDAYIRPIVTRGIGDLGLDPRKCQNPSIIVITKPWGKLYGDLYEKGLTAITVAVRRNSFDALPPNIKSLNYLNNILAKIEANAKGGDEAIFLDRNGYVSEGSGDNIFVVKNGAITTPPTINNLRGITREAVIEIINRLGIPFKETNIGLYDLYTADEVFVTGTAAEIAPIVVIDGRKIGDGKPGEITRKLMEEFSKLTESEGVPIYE

[2] = target: T2, GEO1900 (Geoglobus acetivorans, UniProt A0A0A7GJ30); assay: X-ray crystal structure, […] Å, soak; conditions: 50 mM AKG soak; unproductive complex with holoenzyme; active site of subunit A only
T2 construct: gene ilvE; mainly homodimer in solution, hexamer in crystal; catalytic Lys152

[3] = target: T1, AF0933; assay: X-ray crystal structure, […] Å; conditions: covalent internal aldimine with Lys150
[4] = target: T2, GEO1900; assay: X-ray crystal structure, […] Å; conditions: covalent internal aldimine with Lys152

T2 sequence (A0A0A7GJ30 entry or part of it): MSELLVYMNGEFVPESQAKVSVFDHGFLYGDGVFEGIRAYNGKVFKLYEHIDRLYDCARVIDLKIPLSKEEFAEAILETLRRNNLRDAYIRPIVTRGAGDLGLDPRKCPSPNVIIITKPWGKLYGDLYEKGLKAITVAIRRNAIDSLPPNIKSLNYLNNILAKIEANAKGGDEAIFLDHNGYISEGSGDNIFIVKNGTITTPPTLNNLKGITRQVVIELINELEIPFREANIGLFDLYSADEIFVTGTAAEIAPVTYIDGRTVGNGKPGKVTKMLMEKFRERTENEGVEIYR

N[C@@H]1C=CC=C(C(=O)O)C1 [gabaculine]
X-ray crystal structure, 2.0 Å, co-crystallization [1]: AF0933 complexed with gabaculine 5MR0

O=C(O)CCC(=O)C(=O)O [α-ketoglutarate]
X-ray crystal structure, 2.2 Å, soak [2]: GEO1900 complexed with AKG 5E25

Cc1ncc(COP(=O)(O)O)c(C=O)c1O [pyridoxal 5′-phosphate]
X-ray crystal structure, 2.1 Å [3]: A PLP molecule is covalently bound to the catalytic Lys152 in the GEO1900 active site (Lys150
X-ray crystal structure, 1.9 Å [4]: A PLP molecule is covalently bound to the catalytic Lys152 in the GEO1900 active site
